The IC50 is the concentration that inhibits the measured activity by half.

Square brackets hold non-standard residues; d marks the D form. Peptide text beside a SMILES is read from it. Phe(3-F) = N[C@@H](Cc1cccc(F)c1)C(=O)O; hPhe = N[C@@H](CCc1ccccc1)C(=O)O; Abu = CC[C@H](N)C(=O)O; azaGly = NNC(=O)O Some results are limits rather than exact numbers.

One assay concerns the target T1, CYP2C19 (Homo sapiens, UniProt P33261).
T1 construct: purchased PanVera Vivid CYP2C19 Red Screening Kit
The assay can be described thus: CYP2C19 assay (Vivid CYP2C19 Red Screening Kit). The format is in vitro ADME. The note with it: 20 μM cutoff; read-out: Metabolism: CYP enzymes (20 μM cutoff or IC50) CYP2C19. As to the method: Tubes thawed on ice. 2× reaction buffer dispensed (room temperature) in two eppendorf tubes (for Mix A and Mix B).
Controls or compounds of the invention: Diluted to a concentration of 50 μM. Positive control compound: α-naphthoflavone.
Negative controls: DMSO and H2O.
Mix A: 485 μL reaction buffer, 10 μL regeneration system, 5 μL Baculosome reagent. Mixed gently and placed on ice.
Mix B: 88.5 μL reaction buffer, 1.5 μL substrate, 10 μL 10 mM NADP^+.
In a 96-well plate (Costar c-3904), 40 μL of 50 μM sample dispensed. 50 μl Mix A added. Incubated 20 min. at rt. Then, 10 μl of Mix B added. Fluorescence determined (Molecular Devices, SPECTRAmax Gemini EM): Ex: 409 nm, Em: 460 nm, at 37° C. for 20 min. (Automix: 5 s, top read.).
Following the procedure for CYP1A2, using the appropriate kits below, the effect of a compound of the invention on the other CYP enzymes was determined:
Vivid® CYP2C19 Red Screening Kit from PanVera.

The next assay concerns the target T2, Human cathepsin G (Homo sapiens, UniProt P08311).
T2 construct: purchased Calbiochem 219373
T2 sequence (P08311 21-244): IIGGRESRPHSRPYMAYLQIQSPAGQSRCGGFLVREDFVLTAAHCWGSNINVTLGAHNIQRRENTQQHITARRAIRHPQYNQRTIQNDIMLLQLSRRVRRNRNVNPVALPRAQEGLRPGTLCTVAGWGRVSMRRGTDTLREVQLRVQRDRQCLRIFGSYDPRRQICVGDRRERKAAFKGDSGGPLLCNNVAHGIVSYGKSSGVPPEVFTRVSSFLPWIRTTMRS
The assay can be described thus: Human cathepsin G assay. Format: biochemical. The method, then: Using this assay, the selectivity of a compound of the invention for hDPP-I over human cathepsin G was determined, using a chromogenic substrate.
Buffer containing 100 mM Tris/HCl pH 8.3 (25° C.), 500 mM NaCl, and 20 mM CaCl2 prepared. DTNB (5,5′-dithio-bis(2-nitrobenzoic acid)) was added just prior to experiment (10 μL 1.25 mM/well).
Human cathepsin G (Calbiochem Cat # 219373, 50 ng/μL 0.1 mU/μL stock) was reconstituted in 50 mM sodium acetate and 150 mM NaCl (pH 5.5), and stored at −20° C. Diluted to 2 ng/μL in buffer just prior to experiment.
Suc-Ala-Ala-Pro-Phel-SBzl (Bachem Cat # 4009924.0050) diluted to 1 mM in buffer from 10 mM stock in buffer. Km determined to 100-200 μM.
The assay was performed in 96-well plates. 60 μL assay buffer was added to the well followed by 10 μL DTNB (1.25 mM), and 10 μL of a compound of the invention (100 μM, diluted with assay buffer to give 10 μM in the assay). Then 10 μL (2 ng/μL) enzyme was added, and 10 min. later (at 37° C.) 10 μL substrate (100 μM final concentration) was added. The absorption was measured at 410 nm for 10 minutes at 37° C. Each measurement was made in duplicate. In the software (SOFTmax Pro) used for data collection from the UV-spectrometer it was ensured that the measured slopes were linear (R^2>0.99). […]

A further assay concerns the target T3, Human liver cathepsin H (Homo sapiens, UniProt P09668).
T3 construct: Human liver catheptin H (Enzyme System Products Cath-1; 25 μg); purchased Enzyme System Products Cath-1; host or cells: human liver
T3 sequence (P09668 98-335): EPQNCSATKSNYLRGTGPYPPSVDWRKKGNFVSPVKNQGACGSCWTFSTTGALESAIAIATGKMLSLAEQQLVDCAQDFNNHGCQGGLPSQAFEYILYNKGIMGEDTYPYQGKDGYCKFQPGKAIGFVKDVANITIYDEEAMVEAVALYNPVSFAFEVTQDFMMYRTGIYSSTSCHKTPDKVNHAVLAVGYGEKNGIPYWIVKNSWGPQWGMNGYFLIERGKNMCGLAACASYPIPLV
As to the kind of experiment: Human liver cathepsin H assay. Format: biochemical. As to the method:
Human Liver Cathepsin H Assay
Using this assay, the selectivity of a compound of the invention for hDPP-I over human cathepsin H was determined, using a fluorogenic substrate.
Human liver catheptin H (Enzyme System Products Cath-1; 25 μg) was solubilized in 60 μL enzyme buffer (giving a stock with a concentration of 417 ng/μL). Enzyme stock (5 μL) was diluted with 1245 μL enzyme-buffer. Prior to running experiment 1 μL 0.5 M DTT/100 μL enzyme solution was added. Incubated for 5 minutes on ice, then added to reaction mixture.
ARG-AFC*2HBR (Enzyme System Products AF002; 10.6 mg) was dissolved in 1 mL DMSO, giving a 20 mM solution. Km for this substrate has been determined to be 27 μM
The assay was performed in 96-well plates. 50 μL assay buffer was added to the well followed by 25 μL reference inhibitor (cystatin; stock 1 mg/mL, diluted with assay buffer to give 10 nM in assay) or a compound of the invention (diluted with assay buffer to give 10 μM in the assay). Then 25 μL (40 ng) enzyme was added, and 1 min. later (at 37° C.), 100 μL ARG-AFC substrate (15 μM in the assay) was added. The excitation wavelength was 400 nm, and the emission was measured at 505 nm for 10-20 minutes at 37° C. […] In the software (SOFTmax Pro) used for data collection from the fluorometer (Molecular Devices: Gemini XS) it was ensured that the measured slopes were linear (R^2>0.99). […]

T1 sequence (P33261 whole entry): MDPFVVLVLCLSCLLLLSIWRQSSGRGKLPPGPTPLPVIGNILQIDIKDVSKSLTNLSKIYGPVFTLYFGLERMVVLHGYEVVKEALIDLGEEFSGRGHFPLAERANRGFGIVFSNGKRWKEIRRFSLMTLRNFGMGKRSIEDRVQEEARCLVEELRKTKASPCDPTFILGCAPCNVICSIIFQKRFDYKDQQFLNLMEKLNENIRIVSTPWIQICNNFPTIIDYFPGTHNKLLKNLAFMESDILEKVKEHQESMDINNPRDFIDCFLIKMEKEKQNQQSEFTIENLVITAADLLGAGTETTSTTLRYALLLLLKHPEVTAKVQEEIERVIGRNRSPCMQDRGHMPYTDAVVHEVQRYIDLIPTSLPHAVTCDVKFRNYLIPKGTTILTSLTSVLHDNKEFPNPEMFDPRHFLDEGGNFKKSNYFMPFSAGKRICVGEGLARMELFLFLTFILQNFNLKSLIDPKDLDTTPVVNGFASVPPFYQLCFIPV

For `CC[C@H](N)C(=O)NNC(=O)N[C@@H](CCc1ccccc1)C(=O)N[C@@H](Cc1cccc(F)c1)C(N)=O` [Example 11, 1-(2S-2-Aminobutanoyl)-4-[2S-N-[2S-3-(m-fluorophenyl)propan-2-yl-amide]-4-phenylbutan-2-yl-amide]semicarbazide] (H-[Abu][azaGly][hPhe][Phe(3-F)]-NH2), the IC50 on CYP2C19 was > 20 µM; on Human cathepsin G (human cathepsin G, 10 μM cutoff, read-out: Secondary enzymatic screening (10 μM cutoff or IC50) Cathepsin G) it was > 10 µM; at Human liver cathepsin H (human liver cathepsin H, read-out: Secondary enzymatic screening (10 μM cutoff or IC50) Cathepsin H), 3.2 µM. The “Inhibition of Cathepsin G (in words)” value on Human cathepsin G was “does not inhibit”. The “Inhibition of Cathepsin H (in words)” value on Human liver cathepsin H is “does not inhibit”.

Source of the values: patent US20070155803A1, “Protease inhibitors” (ProZymex A/S, priority 2003, published 2007).
